Reference: article PMC12802961 (Journal of Antimicrobial Chemotherapy, 2025)
“And” between values parts separate entries of the source, which are not always exact repeats. Equal entries are not always repeated. Marks after values point to notes of the source that are not given here.

Legend:
E. coli 52 = assay: Checkerboard broth microdilution MIC of cefepime alone and with taniborbactam; type: cell-based, Escherichia coli; details: ESBL-producing E. coli; in vitro checkerboard
Text: (§1) Four previously well-characterized cefepime-resistant isolates, namely one ESBL-producing E. coli, one ESBL-producing K. pneumoniae and two P. aeruginosa (one VIM- and one AmpC constitutively -producing), were used.

K. pneumoniae 59 [1] = assay: as above; type: cell-based, Klebsiella pneumoniae; details: ESBL-producing K. pneumoniae; in vitro checkerboard
Text: as §1

P. aeruginosa 106 [2] = assay: as above; type: cell-based, Pseudomonas aeruginosa; details: AmpC constitutively-producing P. aeruginosa; in vitro checkerboard
Text: as §1

P. aeruginosa 132 [3] = assay: as above; type: cell-based, Pseudomonas aeruginosa; details: VIM-producing P. aeruginosa; in vitro checkerboard
Text: as §1

[4] = Protein binding, equilibrium dialysis chamber, LC-MS/MS; type: in vitro ADME
Text: […]. […] […].
. […] Free drug concentrations were used in all calculations. […]

K. pneumoniae 59 [5] = assay: Neutropenic murine thigh infection model; type: in vivo, Klebsiella pneumoniae
Description: (§2) All dosing regimens were performed in at least two animals per dosing regimen.
(§3) At t = 0 h, 2 h after infection, two mice were humanely euthanized to determine the initial number of cfu/thigh just before treatment. […] Subsequently, thighs were homogenized using the Ultra-Turrax homogenizer (IKA Labortechnik, Germany). For each thigh 10-fold dilution series were prepared and 3 × 10 µL per dilution were plated (Chromagar, bioMérieux, NL). The following day, colonies were counted and the number of cfu/thigh was calculated.
(§4) Free drug concentrations were used in all calculations.

P. aeruginosa 106 [6] = assay: Neutropenic murine thigh infection model; type: in vivo, Pseudomonas aeruginosa
Description: as §2, §3, §4

P. aeruginosa 132 [7] = assay: Neutropenic murine thigh infection model; type: in vivo, Pseudomonas aeruginosa
Description: as §2, §3, §4

[8] = + cefepime q2h 64 mg/kg, Ct 0.015 mg/L
[9] = + cefepime q2h 64 mg/kg, Ct 0.03 mg/L
[10] = + cefepime q2h 64 mg/kg, Ct 0.06 mg/L
[11] = + cefepime q2h 64 mg/kg, Ct 0.125 mg/L
[12] = + cefepime q2h 64 mg/kg, Ct 0.25 mg/L
[13] = + cefepime q2h 64 mg/kg, Ct 0.5 mg/L
[14] = + cefepime q2h 64 mg/kg, Ct 1 mg/L
[15] = + cefepime q2h 64 mg/kg, Ct 2 mg/L
[16] = + cefepime q2h 64 mg/kg, Ct 4 mg/L
[17] = taniborbactam q2h + cefepime q2h 64 mg/kg
[18] = + cefepime q2h 8 mg/kg, Ct 0.015 mg/L
[19] = + cefepime q2h 8 mg/kg, Ct 0.03 mg/L
[20] = + cefepime q2h 8 mg/kg, Ct 0.06 mg/L
[21] = + cefepime q2h 8 mg/kg, Ct 0.125 mg/L
[22] = + cefepime q2h 8 mg/kg, Ct 0.25 mg/L
[23] = + cefepime q2h 8 mg/kg, Ct 0.5 mg/L
[24] = + cefepime q2h 8 mg/kg, Ct 1 mg/L
[25] = + cefepime q2h 8 mg/kg, Ct 2 mg/L
[26] = + cefepime q2h 8 mg/kg, Ct 4 mg/L
[27] = taniborbactam q2h + cefepime q2h 8 mg/kg

NCCN[C@H]1CC[C@H](CC(=O)N[C@H]2Cc3cccc(C(=O)O)c3OB2O)CC1 [taniborbactam, Taniborbactam]
Taniborbactam concentration at which reversal of phenotypic resistance to cefepime was observed (E. coli 52): ≤ 0.03 mg/L
Taniborbactam concentration at which reversal of phenotypic resistance to cefepime was observed (K. pneumoniae 59 [1]): 0.25 mg/L
Taniborbactam concentration at which reversal of phenotypic resistance to cefepime was observed (P. aeruginosa 106 [2]): 2 mg/L
Taniborbactam concentration at which reversal of phenotypic resistance to cefepime was observed (P. aeruginosa 132 [3]): 0.125 mg/L
Protein binding [4]: 19.6%
Stasis: Taniborbactam %ƒT > Ct 0.015 mg/L (K. pneumoniae 59 [5]; + cefepime q2h 4 mg/kg, Ct 0.015 mg/L): 100%
1 log kill: Taniborbactam %ƒT > Ct 0.015 mg/L (K. pneumoniae 59 [5]; + cefepime q2h 4 mg/kg, Ct 0.015 mg/L, at extrapolated dose): 100%
Stasis: Taniborbactam %ƒT > Ct 0.03 mg/L (K. pneumoniae 59 [5]; + cefepime q2h 4 mg/kg, Ct 0.03 mg/L): 100%
1 log kill: Taniborbactam %ƒT > Ct 0.03 mg/L (K. pneumoniae 59 [5]; + cefepime q2h 4 mg/kg, Ct 0.03 mg/L, at extrapolated dose): 100%
Stasis: Taniborbactam %ƒT > Ct 0.06 mg/L (K. pneumoniae 59 [5]; + cefepime q2h 4 mg/kg, Ct 0.06 mg/L): 86.2%
1 log kill: Taniborbactam %ƒT > Ct 0.06 mg/L (K. pneumoniae 59 [5]; + cefepime q2h 4 mg/kg, Ct 0.06 mg/L, at extrapolated dose): 100%
Stasis: Taniborbactam %ƒT > Ct 0.125 mg/L (K. pneumoniae 59 [5]; + cefepime q2h 4 mg/kg, Ct 0.125 mg/L): 69.3%
1 log kill: Taniborbactam %ƒT > Ct 0.125 mg/L (K. pneumoniae 59 [5]; + cefepime q2h 4 mg/kg, Ct 0.125 mg/L, at extrapolated dose): 100%
Stasis: Taniborbactam %ƒT > Ct 0.25 mg/L (K. pneumoniae 59 [5]; + cefepime q2h 4 mg/kg, Ct 0.25 mg/L): 52.4%
1 log kill: Taniborbactam %ƒT > Ct 0.25 mg/L (K. pneumoniae 59 [5]; + cefepime q2h 4 mg/kg, Ct 0.25 mg/L, at extrapolated dose): 100%
Stasis: Taniborbactam %ƒT > Ct 0.5 mg/L (K. pneumoniae 59 [5]; + cefepime q2h 4 mg/kg, Ct 0.5 mg/L): 35.5%
1 log kill: Taniborbactam %ƒT > Ct 0.5 mg/L (K. pneumoniae 59 [5]; + cefepime q2h 4 mg/kg, Ct 0.5 mg/L, at extrapolated dose): 100%
Stasis: Taniborbactam %ƒT > Ct 1 mg/L (K. pneumoniae 59 [5]; + cefepime q2h 4 mg/kg, Ct 1 mg/L): 18.6%
1 log kill: Taniborbactam %ƒT > Ct 1 mg/L (K. pneumoniae 59 [5]; + cefepime q2h 4 mg/kg, Ct 1 mg/L, at extrapolated dose): 99.01%
Stasis: Taniborbactam %ƒT > Ct 2 mg/L (K. pneumoniae 59 [5]; + cefepime q2h 4 mg/kg, Ct 2 mg/L): 0%
1 log kill: Taniborbactam %ƒT > Ct 2 mg/L (K. pneumoniae 59 [5]; + cefepime q2h 4 mg/kg, Ct 2 mg/L, at extrapolated dose): 83.25%
Stasis: Taniborbactam %ƒT > Ct 4 mg/L (K. pneumoniae 59 [5]; + cefepime q2h 4 mg/kg, Ct 4 mg/L): 0%
1 log kill: Taniborbactam %ƒT > Ct 4 mg/L (K. pneumoniae 59 [5]; + cefepime q2h 4 mg/kg, Ct 4 mg/L, at extrapolated dose): 66.35%
Stasis: Taniborbactam total daily dose (K. pneumoniae 59 [5]; taniborbactam q2h + cefepime q2h 4 mg/kg): 24.00 mg/kg
1 log kill: Taniborbactam total daily dose, mg/kg (K. pneumoniae 59 [5]; taniborbactam q2h + cefepime q2h 4 mg/kg, extrapolated dose, effect not reached within tested doses): (680)^b mg/kg
1 log kill: Taniborbactam %ƒT > Ct 0.015 mg/L (P. aeruginosa 106 [6]; [8]): 100%
Stasis: Taniborbactam %ƒT > Ct 0.015 mg/L (P. aeruginosa 106 [6]; [8]): 100%
1 log kill: Taniborbactam %ƒT > Ct 0.03 mg/L (P. aeruginosa 106 [6]; [9]): 100%
Stasis: Taniborbactam %ƒT > Ct 0.03 mg/L (P. aeruginosa 106 [6]; [9]): 100%
1 log kill: Taniborbactam %ƒT > Ct 0.06 mg/L (P. aeruginosa 106 [6]; [10]): 100%
Stasis: Taniborbactam %ƒT > Ct 0.06 mg/L (P. aeruginosa 106 [6]; [10]): 100%
1 log kill: Taniborbactam %ƒT > Ct 0.125 mg/L (P. aeruginosa 106 [6]; [11]): 100%
Stasis: Taniborbactam %ƒT > Ct 0.125 mg/L (P. aeruginosa 106 [6]; [11]): 100%
1 log kill: Taniborbactam %ƒT > Ct 0.25 mg/L (P. aeruginosa 106 [6]; [12]): 100%
Stasis: Taniborbactam %ƒT > Ct 0.25 mg/L (P. aeruginosa 106 [6]; [12]): 88.39%
1 log kill: Taniborbactam %ƒT > Ct 0.5 mg/L (P. aeruginosa 106 [6]; [13]): 96.5%
Stasis: Taniborbactam %ƒT > Ct 0.5 mg/L (P. aeruginosa 106 [6]; [13]): 71.5%
1 log kill: Taniborbactam %ƒT > Ct 1 mg/L (P. aeruginosa 106 [6]; [14]): 79.6% and 79.61%
Stasis: Taniborbactam %ƒT > Ct 1 mg/L (P. aeruginosa 106 [6]; [14]): 54.6% and 54.61%
1 log kill: Taniborbactam %ƒT > Ct 2 mg/L (P. aeruginosa 106 [6]; [15]): 62.71%
Stasis: Taniborbactam %ƒT > Ct 2 mg/L (P. aeruginosa 106 [6]; [15]): 37.74%
1 log kill: Taniborbactam %ƒT > Ct 4 mg/L (P. aeruginosa 106 [6]; [16]): 45.8%
Stasis: Taniborbactam %ƒT > Ct 4 mg/L (P. aeruginosa 106 [6]; [16]): 20.82%
1 log kill: Taniborbactam total daily dose, mg/kg (P. aeruginosa 106 [6]; [17]): 293 mg/kg
Stasis: Taniborbactam total daily dose (P. aeruginosa 106 [6]; [17]): 105.00 mg/kg
1 log kill: Taniborbactam %ƒT > Ct 0.015 mg/L (P. aeruginosa 132 [7]; [18]): 100%
Stasis: Taniborbactam %ƒT > Ct 0.015 mg/L (P. aeruginosa 132 [7]; [18]): 100%
1 log kill: Taniborbactam %ƒT > Ct 0.03 mg/L (P. aeruginosa 132 [7]; [19]): 100%
Stasis: Taniborbactam %ƒT > Ct 0.03 mg/L (P. aeruginosa 132 [7]; [19]): 96.10%
1 log kill: Taniborbactam %ƒT > Ct 0.06 mg/L (P. aeruginosa 132 [7]; [20]): 88.19%
Stasis: Taniborbactam %ƒT > Ct 0.06 mg/L (P. aeruginosa 132 [7]; [20]): 79.2%
1 log kill: Taniborbactam %ƒT > Ct 0.125 mg/L (P. aeruginosa 132 [7]; [21]): 71.30%
Stasis: Taniborbactam %ƒT > Ct 0.125 mg/L (P. aeruginosa 132 [7]; [21]): 62.31%
1 log kill: Taniborbactam %ƒT > Ct 0.25 mg/L (P. aeruginosa 132 [7]; [22]): 54.41%
Stasis: Taniborbactam %ƒT > Ct 0.25 mg/L (P. aeruginosa 132 [7]; [22]): 45.1%
1 log kill: Taniborbactam %ƒT > Ct 0.5 mg/L (P. aeruginosa 132 [7]; [23]): 37.51%
Stasis: Taniborbactam %ƒT > Ct 0.5 mg/L (P. aeruginosa 132 [7]; [23]): 28.53%
1 log kill: Taniborbactam %ƒT > Ct 1 mg/L (P. aeruginosa 132 [7]; [24]): 20.6% and 20.62%
Stasis: Taniborbactam %ƒT > Ct 1 mg/L (P. aeruginosa 132 [7]; [24]): 11.6% and 11.63%
1 log kill: Taniborbactam %ƒT > Ct 2 mg/L (P. aeruginosa 132 [7]; [25]): 3.72%
Stasis: Taniborbactam %ƒT > Ct 2 mg/L (P. aeruginosa 132 [7]; [25]): 0%
1 log kill: Taniborbactam %ƒT > Ct 4 mg/L (P. aeruginosa 132 [7]; [26]): 0%
Stasis: Taniborbactam %ƒT > Ct 4 mg/L (P. aeruginosa 132 [7]; [26]): 0%
1 log kill: Taniborbactam total daily dose, mg/kg (P. aeruginosa 132 [7]; [27]): 26 mg/kg
Stasis: Taniborbactam total daily dose (P. aeruginosa 132 [7]; [27]): 18.00 mg/kg
